The structures appear in SMILES notation. “Also recorded” adds a separate entry of the source.

The record followed here is patent US9975853B2, “Tetrahydroisoquinolinone derivatives and their use in the inhibition of the HSP70 protein” (Julius-Maximilians-Universitaet Wuerzburg, priority 2014, dated 2018).

The test system of this experiment is caspases 9 and 3. In words: Apoptosis assay: cleavage and activation of caspases 9 and 3, PARP cleavage in INA-6 cells (Western blot). Format: cell-based, human. To be noted: INA-6, 0.6 μM, 24 hours. As for the experimental part: Apoptosis Assays. Hsp70-dependent prevention of apoptosis was investigated by analyses of the apoptosis-inducing factors (AIF) and of the caspases 9 and 3 in INA-6 cells. INA-6 cells were treated with 0.6 μM of compound trans-7b for 8 hours prior to analyze nuclear translocation of AIF. Staining of the nuclear protein lamin A was used as a loading control. […] Analysis of cleavage of the bona fide caspase substrate PARP served as a control for caspase activation. Co-treatment with the pan-caspase inhibitor Z-VAD-FMK (50 μM) was employed as another specificity control.
In FIG. 2A Western blot analyses of caspases 9 and 3, and the caspase substrate PARP (upper panel), and viability analyses (lower panel) of INA-6 MM cells upon treatment with trans-7b for 24 hours are shown. […] Lysates were cleared by centrifugation, measured by quantitative protein assay (Bio-Rad, München, Germany) and subjected to SDS gel electrophoresis. […] INA-6 cells were washed in PBS, incubated for 15 minutes in 100 ml binding buffer (10 mM HEPES/NaOH, pH 7.4, 140 mM NaCl, 2.5 mM CaCl2) containing 2.5 mL annexin V-FITC mix and 1 mg/ml PI and analyzed by flow cytometry (FACSCalibur/CELLQuest; Becton Dickinson, Heidelberg, Germany). […] Raw data of three independent experiments have been calculated to establish means, standard deviation and dose-effect curves of trans-7b.
(In general: In western blotting, separated proteins are transferred to a membrane and probed.)

In the case of `COc1ccc(C2C(C(=O)Nc3cccc(C)n3)c3ccccc3C(=O)N2c2ccccc2)cc1` (stereo not drawn) [trans-7b, trans-3-(4-Methoxyphenyl)-N-(6-methylpyridin-2-yl)-1-oxo-2-phenyl-1,2,3,4-tetrahydroisoquinoline-4-carboxamide], the “caspase 9 and 3 cleavage/activation (PARP cleavage)” value is “activation of the caspases 9 and 3; also recorded: sequential caspase 9 and 3 cleavage leading to their activation”.
